# Measured values: patent US11590139B2, “Substituted aminopurine compounds, compositions thereof, and methods of treatment therewith” (Signal Pharmaceuticals, LLC, priority 2014, dated 2023)
# System: Lox-IMVI melanoma cell line
# Assay: Lox-IMVI anti-proliferative assay (growth inhibition, Cell Titer-Glo)
# Format: cell-based, human
# Details: Homo sapiens; IC50 activity level in the cell-based Lox-IMVI anti-proliferative assay; read-out: Activity
# Summary of the method: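 First, compound was dispensed as a 10-point 3-fold series (0.5 nM–10 μM, duplicate). Then cells in RPMI + 10% FBS were added and grown 72 h at 37 °C with 0.2% DMSO. Finally, ATP luminescence was read and IC50 calculated versus DMSO control.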
row,Structure (SMILES),IC50
1,"NC(=O)[C@H]1CC[C@@H](n2c(Nc3c(F)ccc(Cl)c3F)nc3cnc(N[C@H]4COC[C@@H]4O)nc32)CC1 [Example 318, (1R,4s)-4-(8-(3-chloro-2,6-difluorophenylamino)-2-((3S,4R)-4-hydroxytetrahydrofuran-3-ylamino)-9H-purin-9-yl)cyclohexanecarboxamide]",> 1000 nM
2,"CC1(C)CC[C@@H](Nc2ncc3nc(Nc4c(F)cc(Cl)cc4Cl)n([C@H]4CC[C@@H](C(N)=O)CC4)c3n2)C[C@H]1O [Example 389, (1S,4s)-4-(8-(2,4-dichloro-6-fluorophenylamino)-2-((1R,3R)-3-hydroxy-4,4-dimethylcyclohexylamino)-9H-purin-9-yl)cyclohexanecarboxamide]",> 1000 nM
3,"NC(=O)[C@H]1CC[C@@H](n2c(Nc3c(Cl)cccc3Cl)nc3cnc(NC4COC4)nc32)CC1 [Example 56, (1s,4s)-4-(8-(2,6-dichlorophenylamino)-2-(oxetan-3-ylamino)-9H-purin-9-yl)cyclohexanecarboxamide]",> 1000 nM
4,"CC(C)(C)OC(=O)N1CCC[C@@H](Nc2ncc3nc(Nc4c(Cl)cc(Cl)cc4Cl)n([C@H]4CC[C@@H](C(N)=O)CC4)c3n2)C1 [Example 163, (R)-tert-butyl 3-(9-((1s,4S)-4-carbamoylcyclohexyl)-8-(2,4,6-trichlorophenylamino)-9H-purin-2-ylamino)piperidine-1-carboxylate]",> 1000 nM
5,"CC(C)Nc1ncc2nc(Nc3c(Cl)cc(F)cc3Cl)n([C@H]3CC[C@@H](C(N)=O)CC3)c2n1 [Example 123, (1s,4s)-4-(8-(2,6-dichloro-4-fluorophenylamino)-2-(isopropylamino)-9H-purin-9-yl)cyclohexanecarboxamide]",500 to 1000 nM
6,"Cc1c(Cl)ccc(F)c1Nc1nc2cnc(NC3CCOCC3)nc2n1[C@H]1CC[C@@H](C(N)=O)CC1 [Example 79, (1s,4s)-4-(8-(3-chloro-6-fluoro-2-methylphenylamino)-2-(tetrahydro-2H-pyran-4-ylamino)-9H-purin-9-yl)cyclohexanecarboxamide]",> 1000 nM
7,"N#Cc1cc(F)c(Nc2nc3cnc(NC4CCOCC4)nc3n2[C@H]2CC[C@@H](C(N)=O)CC2)c(F)c1 [Example 309, (1s,4s)-4-(8-(4-cyano-2,6-difluorophenylamino)-2-(tetrahydro-2H-pyran-4-ylamino)-9H-purin-9-yl)cyclohexanecarboxamide]",< 250 nM
8,"Cc1cccc(Nc2nc3cnc(NC4CCOCC4)nc3n2[C@H]2CC[C@@H](C(N)=O)CC2)c1Cl [Example 69, (1s,4s)-4-(8-(2-chloro-3-methylphenylamino)-2-(tetrahydro-2H-pyran-4-ylamino)-9H-purin-9-yl)cyclohexanecarboxamide]",> 1000 nM
9,"CC[C@H](C)Nc1ncc2nc(Nc3c(F)cccc3F)n([C@H]3CC[C@@H](C(N)=O)CC3)c2n1 [Example 335, (1R,4s)-4-(2-(sec-butylamino)-8-(2,6-difluorophenylamino)-9H-purin-9-yl)cyclohexanecarboxamide]",> 1000 nM
10,"NC(=O)[C@H]1CC[C@@H](n2c(Nc3c(Cl)cc(F)cc3Cl)nc3cnc(N[C@@H]4CCOC4)nc32)CC1 [Example 222, (1S,4s)-4-(8-(2,6-dichloro-4-fluorophenylamino)-2-((R)-tetrahydrofuran-3-ylamino)-9H-purin-9-yl)cyclohexanecarboxamide]",500 to 1000 nM

# Same assay, conditions: Homo sapiens; Lox-IMVI anti-proliferative assay, IC50 activity level; read-out: Activity
row,Structure (SMILES),IC50
1,"C[C@]1(C(N)=O)CC[C@@H](n2c(Nc3c(Cl)cc(Cl)cc3Cl)nc3cnc(N[C@@H]4CCC[C@H](O)C4)nc32)CC1 [Example 565, (1S,4s)-4-(2-((1R,3S)-3-hydroxycyclohexylamino)-8-(2,4,6-trichlorophenylamino)-9H-purin-9-yl)-1-methylcyclohexanecarboxamide]",< 250 nM
2,"N#Cc1cc(Cl)c(Nc2nc3cnc(N[C@@H]4CCC[C@H](O)C4)nc3n2[C@H]2CC[C@@H](C(N)=O)CC2)c(Cl)c1 [Example 455, (1S,4s)-4-(8-(2,6-dichloro-4-cyanophenylamino)-2-((1R,3S)-3-hydroxycyclohexylamino)-9H-purin-9-yl)cyclohexanecarboxamide]",< 250 nM
3,"NC(=O)[C@H]1CC[C@@H](n2c(Nc3c(Cl)cc(Cl)cc3Cl)nc3cnc(NC4CCCOCC4)nc32)CC1 (stereo partly drawn) [Example 539, (1s,4s)-4-(2-(oxepan-4-ylamino)-8-(2,4,6-trichlorophenylamino)-9H-purin-9-yl)cyclohexanecarboxamide]",< 250 nM
4,"C[C@]1(C(N)=O)CC[C@H](n2c(Nc3c(F)cc(Cl)cc3Cl)nc3cnc(NC4CCCC4)nc32)CC1 [Example 492, (1r,4r)-4-(2-(cyclopentylamino)-8-(2,4-dichloro-6-fluorophenylamino)-9H-purin-9-yl)-1-methylcyclohexanecarboxamide]",500 to 1000 nM
5,"COC(=O)N1CCCC(Nc2ncc3nc(Nc4c(F)cccc4Cl)n([C@H]4CC[C@@H](C(N)=O)CC4)c3n2)C1 (stereo partly drawn) [Example 406, (R)-methyl 3-(9-((1s,4S)-4-carbamoylcyclohexyl)-8-(2-chloro-6-fluorophenylamino)-9H-purin-2-ylamino)piperidine-1-carboxylate]",> 1000 nM
6,"C[C@]1(O)CCC[C@@H](Nc2ncc3nc(Nc4ccc(F)cc4Cl)n([C@H]4CC[C@@H](C(N)=O)CC4)c3n2)C1 [Example 429, (1S,4s)-4-(8-(2-chloro-4-fluorophenylamino)-2-((1R,3S)-3-hydroxy-3-methylcyclohexylamino)-9H-purin-9-yl)cyclohexanecarboxamide]",> 1000 nM
7,"C[C@]1(C(N)=O)CC[C@@H](n2c(Nc3c(F)cc(Cl)cc3Cl)nc3cnc(N[C@@H]4CCC[C@H](O)C4)nc32)CC1 [Example 564, (1S,4s)-4-(8-(2,4-dichloro-6-fluorophenylamino)-2-((1R,3S)-3-hydroxycyclohexylamino)-9H-purin-9-yl)-1-methylcyclohexanecarboxamide]",< 250 nM
8,"N#Cc1cc(F)c(Nc2nc3cnc(NC4CC(F)(F)C4)nc3n2[C@H]2CC[C@@H](C(N)=O)CC2)c(F)c1 [Example 401, (1s,4s)-4-(8-(4-cyano-2,6-difluorophenylamino)-2-(3,3-difluorocyclobutylamino)-9H-purin-9-yl)cyclohexanecarboxamide]",> 1000 nM

# Same assay, conditions: Homo sapiens; Lox-IMVI melanoma cell line, anti-proliferative assay; read-out: Activity (IC50 activity level)
row,Structure (SMILES),IC50
1,"N#Cc1cc(Cl)c(Nc2nc3cnc(N[C@@H]4CCC(F)(F)C4)nc3n2[C@H]2CC[C@@H](C(N)=O)CC2)c(Cl)c1 [Example 699, (1S,4s)-4-(8-(2,6-dichloro-4-cyanophenylamino)-2-((R)-3,3-difluorocyclopentylamino)-9H-purin-9-yl)cyclohexanecarboxamide]",250 to 500 nM
2,"CC(C)OC(=O)N1CCC[C@@H](Nc2ncc3nc(Nc4c(Cl)cc(C(F)(F)F)cc4Cl)n([C@H]4CC[C@@H](C(N)=O)CC4)c3n2)C1 [Example 770, (R)-isopropyl 3-(9-((1s,4S)-4-carbamoylcyclohexyl)-8-(2,6-dichloro-4-(trifluoromethyl)phenylamino)-9H-purin-2-ylamino)piperidine-1-carboxylate]",> 1000 nM

# Same assay, conditions: Lox-IMVI melanoma cell line, anti-proliferative assay; read-out: Activity (IC50 activity level)
row,Structure (SMILES),IC50
1,"CNC(=O)N1CCC[C@@H](Nc2ncc3nc(Nc4c(Cl)cc(C#N)cc4Cl)n([C@H]4CC[C@@H](C(N)=O)CC4)c3n2)C1 [Example 707, (R)-3-(9-((1s,4S)-4-carbamoylcyclohexyl)-8-(2,6-dichloro-4-cyanophenylamino)-9H-purin-2-ylamino)-N-methylpiperidine-1-carboxamide]",> 1000 nM
